These results are taken from article PMC9822434, “Estradiol-Based Salicylaldehyde (Thio)Semicarbazones and Their Copper Complexes with Anticancer, Antibacterial and Antioxidant Activities” (Molecules, 2022).

Where two headings read alike, the source gives them in different places. Some results are limits rather than exact numbers.

Data set [1] in a line: direct redox reaction of the Cu(II) complexes with GSH (UV–vis, anaerobic). The following applies: Cu(II) complex (25 µM) of the named ligand with GSH (1.25 mM), pH 7.4, anaerobic, 30% (v/v) DMSO/H2O, 25.0 °C. It counts as physicochemical. The procedure:
(§1) The redox reaction of the Cu(II) complexes with GSH and ascorbic acid was studied at 25.0 ± 0.1 °C, at pH 7.40 (10 mM HEPES with 0.1 M KCl) on an Agilent Cary 8454 diode array spectrophotometer using a special, tightly closed tandem cuvette (Hellma Tandem Cell, 238-QS). The complex and the reducing agent were separated until the reaction was triggered. Both isolated pockets of the tandem cuvette were completely deoxygenated by bubbling argon for 10 min before mixing the reactants. Spectra were recorded before and then immediately after the mixing, and changes were followed till no further absorbance change was observed. The stock solutions of the reducing agents and the complexes were freshly prepared every day.
During the calculations, the absorbance (A)−time (t) curves were fitted and analyzed at the λmax of the complex. (A0 − Afinal) × e ^(−a×t) + Afinal equation was used where A0, Afinal and a parameters were refined and accepted at the minimal value of the weighted sum of squared residuals (difference between the measured and calculated absorbance values) at the given wavelength. Then observed rate constants (kobs) of the redox reaction were obtained from the data points of the simulated absorbance–time curves as the slope of the ln(A/A0) versus t plots.

Data set [2] is described as follows: direct redox reaction of the Cu(II) complexes with ascorbic acid (UV–vis, anaerobic). It is filed as physicochemical. The following applies: Cu(II) complex 25 µM, 50 equiv. ascorbic acid, pH 7.4, 30% (v/v) DMSO/H2O. The procedure:
as §1

A short description of data set [3]: cyclic voltammetry of Cu(II)-(T)SC (1:1) systems. The following applies: 90% (v/v) DMSO/H2O, pH 7.40 (10 mM HEPES), 10 mV/s, 25 °C, I = 0.1 M (nBu4NPF6). It counts as physicochemical. The procedure:
Cyclic voltammograms of TSCs derivatives and their Cu(II) complexes at 25.0 ± 0.1 °C were recorded. nBu4NPF6 was used as a supporting electrolyte, and measurements were performed at pH 7.4. The complexes were obtained by mixing the ligand dissolved in DMSO with aqueous solution of CuCl2 in 1:1 ratio. The final concentration of stock was 1 mM. Measurements were performed on a conventional three-electrode system under argon atmosphere using an Autolab PGSTAT 204 potentiostat/galvanostat monitored with Metrohm’s Nova software. Samples were purged for 10 min with argon before recording the cyclic voltammograms. Platinum electrode was used as the working and auxiliary electrode and Ag/AgCl/3 M KCl as the reference electrode. The electrochemical system was calibrated with an aqueous solution of K3[Fe(CN)6] (E1/2 = +0.458 V vs. NHE). Redox potentials were obtained at 10 mV/s scan rate in the range of −1.3 to +0.8 V.

The nature of data set [4]: DPPH free radical scavenging assay. The following applies: for % Scavenging Effect: DPPH:compound = 1:1 ratio after 30 min, ethanol; for IC50: in ethanol, T = 25 °C, cDPPH = 50 µM, ccompound = 5−50 µM. The procedure: The DPPH (Sigma-Aldrich) free radical scavenging capacity was studied at 25.0 ± 0.1 °C on an Agilent Cary 3500 spectrophotometer with tightly closed tandem cuvette according to our approach with some modifications. The stock solution of DPPH (100 µM) was prepared in ethanol, and 0.5 mL of this solution was added to one pocket of the cuvette and 0.5 mL of the tested compound in different concentrations in ethanol was added to another. The final concentration of the studied compounds was in the range 5–50 µM, where for DPPH concentration, it was always 50 µM. A standard compound Trolox (Sigma-Aldrich) was used as a positive control. The percentage of the antioxidant activity (AA), IC50 values (the concentration of compound at which it reduced 50% of DPPH) and Trolox equivalent antioxidant capacity (TEAC) were calculated.

The subject of data set [5] is E. faecalis ATCC 29212. Briefly: MIC determination. It counts as cell-based, Enterococcus faecalis. The following applies: Gram-positive E. faecalis ATCC 29212; Mueller Hinton Broth. The procedure: (§2) Klebsiella pneumoniae (ATCC 49619), Escherichia coli (ATCC 25922), Staphylococcus aureus (ATCC 25928) and Enterococcus faecalis (ATCC 29212) strains were used as Gram-negative and Gram-positive bacterial cultures. The stock solutions of the tested compounds (dissolved in 90% (v/v) DMSO/H2O at 10 mM concentration) were diluted in 100 μL of Mueller Hinton Broth, and then two-fold serial dilutions were performed. As a starting point, 100 μM concentration of the compounds was used. Then, 10^−4 dilution of an overnight bacterial culture in 100 μL of medium was added to each well, with the exception of the medium control wells. Minimum inhibitory concentration (MIC) values of compounds were determined according to our previous work.

The subject of data set [6] is S. aureus ATCC 25928. Briefly: MIC determination. It is filed as cell-based, Staphylococcus aureus. The following applies: Gram-positive S. aureus ATCC 25928; Mueller Hinton Broth. The procedure: as §2
Data set [7] has as its system A549. As to the kind of experiment: MTT cytotoxicity assay. It counts as cell-based, human. The following applies: for IC50: 24 h incubation time. The procedure: (§3) To test the biological effects of the Cu(II) complexes and the ligands on human cancer cells, DU-145 prostate, A549 lung, and MCF-7 breast adenocarcinoma cells, as well as the multidrug-resistant MCF-7 KCR breast cancer cells were utilized. All the cell lines were maintained in RPMI-1640 media (Biosera, Nuaille, France) complemented with 10% fetal bovine serum (FBS), 2 mM L-glutamine, 0.01% streptomycin and 0.005% penicillin, (Biosera, Nuaille, France) and were cultured under standard conditions in a 37 °C incubator at 5% CO2 and 95% humidity. The cell lines were originally obtained from ATCC.
(§4) The effect of the complexes and of their ligands alone on the viability (on the metabolic activity) of human cancer cells was assessed by MTT assay. The tested compounds were dissolved in 90% (v/v) DMSO/H2O at 10 mM concentration. Equimolar solutions of the ligand CuCl2 salt were used for the cytotoxicity assays. The metal salts without ligands were also tested. For this, 1 × 10^4 cells/well were seeded into 96-well plates and left to grow overnight. On the following day, cells were exposed to increasing concentrations of each compound (0; 2.5; 5; 10; 15; 20 µM). After a 24 h incubation, cells were washed with PBS buffer and then incubated with 0.5 mg/mL MTT (Sigma-Aldrich, St Louis, Missouri, MO, USA) for 1 h at 37 °C. The formazan crystals were solubilized in DMSO (Molar Chemicals, Halásztelek, Hungary), and the absorbance of samples was determined at 570 nm using a Synergy HTX plate reader (BioTek, Winooski, Vermont, VT, USA). Absorption corresponding to the untreated control samples was considered as 100%.
Background: Tetrazolium assays rely on reduction of a dye to a coloured formazan, in cell work by metabolically active cells.

Data set [8] has as its system DU-145. As to the kind of experiment: MTT cytotoxicity assay. It counts as cell-based, human. The following applies: DU-145, MTT; for IC50: 24 h incubation time. The procedure: as §3, §4
Data set [9] relates to MCF-7 KCR. Briefly: MTT cytotoxicity assay. It counts as cell-based, human. The following applies: for IC50: 24 h incubation time. The procedure:
as §3, §4

For data set [10], the system named is MCF-7. As to the kind of experiment: MTT cytotoxicity assay. It is filed as cell-based, human. The following applies: MCF-7, MTT; for IC50: 24 h incubation time. The procedure: as §3, §4
The test system of data set [11] is A549 cells. Briefly: DCFDA staining (intracellular ROS). The following applies: A549, 20 µM, 6 h. It is filed as cell-based, human. The procedure: (§5) DCFDA staining assay was performed to measure the total intracellular ROS level upon treatments. For this, 1 × 10^5 cells/well were seeded onto coverslips (VWR International, Radnor, Pennsylvania, PA, USA) placed in 24-well plates and left to grow. […] After treatments, cells were washed with PBS then incubated for 1 h with 10 μM DCFDA solution. The fluorescence intensity of the samples was assessed by an OLYMPUS BX51 microscope with Olympus DP70 camera and was quantified using ImageJ software.

The test system of data set [12] is DU-145 cells. Briefly: DCFDA staining (intracellular ROS). It is filed as cell-based, human. The following applies: DU-145, 20 µM, 6 h. The procedure: as §5
Data set [13] deals with MCF-7 KCR cells. Briefly: DCFDA staining (intracellular ROS). It is filed as cell-based, human. The following applies: 20 µM, 6 h. The procedure: as §5
The test system of data set [14] is A549, MCF-7, MCF-7 KCR and DU-145 cells. Briefly: γH2AX immunostaining (DNA double-strand breaks). The following applies: 20 µM, 3 h. It is filed as cell-based, human. The procedure: In order to determine the degree of DNA damage induced by the treatments, DNA double-strand breaks were visualized by γH2AX immunostaining. For this, 1 × 10^5 cells/well were seeded onto coverslips in 24-well plates. […] Then, cells were fixed with 4% formaldehyde (Molar Chemicals, Halásztelek, Hungary), permeabilized with 0.3% Triton-X-100 (Calbiochem, Merck Millipore, Darmstadt, Germany) and were blocked using 5% bovine serum albumin (BSA) (Sigma-Aldrich, St. Louis, MO, USA). Then, the samples were incubated with anti-γH2AX antibody (Thermo Fisher Scientific, Waltham, MA, USA) in 1:300 dilution followed by Alexa 488 fluorophore-conjugated goat anti-mouse secondary antibody (Abcam, Cambridge, UK) in 1:600 dilution. The fluorescence intensity of the stained samples was detected by an Olympus FV10i confocal microscope.

The format of data set [15] is physicochemical. The following applies: cligand = 20 µM. The procedure:
An Orion 710A pH-meter equipped with a Metrohm combined electrode (type 6.0234.100) and a Metrohm 665 Dosimat burette were used for the UV–vis titrations at 25.0 ± 0.1 °C. Ionic strength of 0.10 M (KCl) was used to keep the activity coefficients constant. The titrations were performed with carbonate-free KOH solution of known concentration (0.10 M) with 30% (v/v) DMSO content. […] The average water ionization constant (pKw) is 14.54 ± 0.05 in the 30% (v/v) DMSO/H2O mixture. Argon was always passed over the solutions during the titrations. An Agilent Cary 8454 diode array spectrophotometer was used to record the UV–vis spectra at an interval of 200–800 nm. The path length was 2 cm. Spectrophotometric titrations were performed using a 0.1 M KOH titrant solution with 30% (v/v) DMSO on samples with 30% (v/v) DMSO containing HCl, KCl and the ligand at 20 μM concentration in the pH range 2.0–12.5 in the absence or in the presence of 1 or 0.5 equiv. Cu(II) ions. Proton dissociation constants (Ka) of the TSC ligands, the overall stability constants (β) of the Cu(II) complexes and the UV–vis spectra of the individual species were calculated by the computer program PSEQUAD [41] as was done in our previous works.

The conditions of data set [16]: cited from earlier work.
The conditions of data set [17]: Cu(II) complex (25 µM) with GSH (1.25 mM), pH 7.4, anaerobic; cited from earlier work.
The mark [18] stands for this setting: 30% (v/v) DMSO/H2O, T = 25.0 °C, I = 0.1 M (KCl).

With `C[C@]12CC[C@@H]3c4cc(/C=N/N=C(N)[O-])c([O-])cc4CC[C@H]3[C@@H]1CC[C@@H]2O.O.[Cu+2]` [Cu(II)-estradiol-SC], the kobs entry in [1] is given as “rapid reduction of Cu(II)”. Moreover, the “reduction by ascorbic acid (in words)” value in [2] is recorded as “remarkable spectral changes”. Also, the “formal potential E’ vs. Ag/AgCl/3M KCl” value in data set [3] is listed as “+0.10 V”. Moreover, the “% Scavenging Effect” value in data set [4] (25 °C) is given as 8.5%. In addition, the IC50 – broadly, the midpoint of a concentration-inhibition curve – in [4] was > 50 µM; in data set [7], > 20 µM; in data set [8], > 20 µM; in data set [9], > 20 µM; in [10], > 20 µM. Besides, the MIC (as a rule, the smallest concentration in the dilution series that meets the test's criterion for growth inhibition) is given as >100 µM in data set [5] and 50 µM in data set [6]. Besides, the “effect on cell viability (in words)” value in [7] (up to 20 µM, 24 h) is recorded as “only slightly toxic”; in data set [8] (up to 20 µM, 24 h), “neither the estradiol-SC nor the Cu(II)-estradiol-SC complex exhibit any harmful effect”; in data set [9] (up to 20 µM, 24 h), “only slightly toxic”; in [10] (up to 20 µM, 24 h) it was “neither the estradiol-SC nor the Cu(II)-estradiol-SC complex exhibit any harmful effect”.
On to `C[C@]12CC[C@@H]3c4cc(/C=N/N=C(N)[S-])c([O-])cc4CC[C@H]3[C@@H]1CC[C@@H]2O.O.[Cu+2]` [Cu(II)-estradiol-TSC], for which the “formal potential E’ vs. Ag/AgCl/3M KCl” value in data set [3] is on record as “+0.31 V”. In addition, the “TEAC (Trolox equivalent antioxidant capacity)” value in [4] (DPPH assay in ethanol, 25 °C) is given as 0.8. Moreover, the “% Scavenging Effect” value in data set [4] (25 °C) stood at 90.8%. Besides, the IC50 in data set [4] was 15.7 µM; in data set [7], 10 ± 1.04 µM; in data set [8], > 20 µM; in data set [9], 13 ± 1.09 µM; in data set [10], 8.4 ± 1.11 µM. Moreover, the MIC in data set [5] was found to be 12.5 µM; in data set [6], 3.125 µM. Further, the “intracellular amount of ROS vs DMSO control” value in [11], in data set [12] and in [13] was “significantly increased” throughout. The “DNA double-strand breaks (γH2AX) vs untreated control cells” value in data set [14] is “None of these treatments caused a higher degree of DNA damage”.
Consider `CC12CCC3c4cc(C=NNC(N)=O)c(O)cc4CCC3C1CCC2=O` (centres unmarked) [estrone-SC], for which the pCu5.0 in data set [15] (calculated at pH 5.0, cCu(II) = 20 µM) is recorded as 5.8. Also, the pCu6.0 in data set [15] (estimated at pH 6.0, cCu(II) = 20 µM) is reported as 6.3. Besides, in [16] (setting [18]), the “logβ [CuLH−1]” value is on record as 4.82 ^1 and the “logβ [CuL]+” value is recorded as 11.26 ^1. Moreover, in [16] (pH 7.4, cCu(II) = 20 µM, cligand = 20 µM), the pCu7.4 is listed as 7.5 ^1. Moreover, in [17], the kobs entry is “fast reaction ^1”.
